Reference: patent publication US20030044399A1, “Method of treatment” (SmithKline Beecham Corporation, priority 1998, published 2003)
pKi: −log10 of the molar value. Read-outs that look alike come from different tables or passages of the source.

Tests used:
[1] = target: Rhodazain (Trypanosoma brucei rhodesiense, UniProt Q95PM0); test: Cysteine protease inhibition, progress curve method, rhodazain; format: biochemical, Trypanosoma brucei rhodesiensi; conditions: Rhodazain Ki (nM), 10 uM Cbz-Leu-Arg-AMC, 100 mM Na acetate pH 5.5, 5 mM cysteine
[2] = target: T1, Leishmania B (UniProt P90627); test: Cysteine protease inhibition, progress curve method, leishmania B; format: biochemical, Leishmania spp; conditions: read-out: Leishmania B Ki nM; 10 uM Cbz-Phe-Arg-AMC, 100 mM Na acetate pH 5.5, 5 mM cysteine
T1 sequence (P90627 1-340): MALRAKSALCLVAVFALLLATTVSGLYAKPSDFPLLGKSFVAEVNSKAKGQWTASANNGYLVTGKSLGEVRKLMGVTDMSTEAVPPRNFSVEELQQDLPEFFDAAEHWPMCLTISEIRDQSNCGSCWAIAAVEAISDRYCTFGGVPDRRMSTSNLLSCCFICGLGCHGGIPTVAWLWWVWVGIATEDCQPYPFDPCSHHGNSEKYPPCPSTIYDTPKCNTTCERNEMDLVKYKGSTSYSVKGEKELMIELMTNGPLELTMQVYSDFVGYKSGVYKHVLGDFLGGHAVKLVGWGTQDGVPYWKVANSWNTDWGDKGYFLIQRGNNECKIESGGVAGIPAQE
Experimental: (§1) Standard assay conditions for the determination of kinetic constants used 10 uM fluorogenic peptide substrate, Cbz-Phe-Arg-AMC for the cysteine proteases from Leishmania spp and Schistosoma Mansoni, Cbz-Leu-Arg-AMC for the cysteine proteases from Plasmodium falciparum and Trypanosoma brucei rhodesiensi, and Ac-Lys-Glu-Lys-Leu-Arg-AMC (4 uM final substrate concentration) for the cysteine protease from Trypoanosoma cruzi, and were determined in 100 mM Na acetate at pH 5.5 containing 5 mM cysteine. Stock substrate solutions were prepared at concentrations of […] in DMSO with 10 uM (4 uM for Ac-Lys-Glu-Lys-Leu-Arg-AMC) final substrate concentration in the assays. The final DMSO concentration was 2% and the final volume was 100 uL. All assays were conducted at ambient temperature. Product progress curves were generated over 20 to 30 minutes following formation of AMC product.
(§2) Potential inhibitors were evaluated using the progress curve method. Assays were carried out in the presence of variable concentrations of test compound. Reactions were initiated by addition of enzyme to buffered solutions of inhibitor and substrate. Data analysis was conducted according to one of two procedures depending on the appearance of the progress curves in the presence of inhibitors. For those compounds whose progress curves were linear, apparent inhibition constants (Ki,app) were calculated according to equation 1 (Brandt et al., Biochemitsry, 1989, 28, 140):
(§3) v=VmA/[Ka(1+I/Ki,app)+A] (1)
(§4) Where v is the velocity of the reaction with maximal velocity Vm, A is the concentration of substrate with Michaelis constant of Ka, and I is the concentration of inhibitor.
(§5) [AMC]=vsst+(v0−vss)[1−exp (−kobst)]/kobs (2)
(§6) Where [AMC] is the concentration of product formed over time t, v0 is the initial reaction velocity and vss is the final steady state rate. Values for kobs were then analyzed as a linear function of inhibitor concentration to generate an apparent second order rate constant (kobs/inhibitor concentration or kobs/[I]) describing the time-dependent inhibition. A complete discussion of this kinetic treatment has been fully described (Morrison et al., Adv. Enzymol. Relat. Areas Mol. Biol., 1988, 61, 201).
(§7) Exemplary inhibition data for the compounds used in the present method collected in accordance with the above-described procedure are listed in Table I.

[3] = target: Cruzain (Trypanosoma cruzi, UniProt P25779); test: Cysteine protease inhibition, progress curve method, cruzain; format: biochemical; conditions: 4 uM Ac-Lys-Glu-Lys-Leu-Arg-AMC, 100 mM Na acetate pH 5.5, 5 mM cysteine; read-out: Cruzain Ki
In short: (§8)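 Kinetic constants from AMC-release progress curves over 20–30 min at ambient temperature in 100 mM Na acetate pH 5.5, 5 mM cysteine, 2% DMSO; enzyme added last to inhibitor plus substrate. Substrates: 10 uM Cbz-Phe-Arg-AMC (Leishmania, Schistosoma), 10 uM Cbz-Leu-Arg-AMC (falcipain), 4 uM Ac-Lys-Glu-Lys-Leu-Arg-AMC (cruzain). Ki,app from linear curves; time-dependent inhibition as kobs/[I].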

[4] = target: Schisto B 1 (Schistosoma mansoni, UniProt P25792); test: Cysteine protease inhibition, progress curve method, schistosoma B 1; format: biochemical
Experimental: as §1, §2, §3, §4, §5, §6, §7

[5] = target: Schisto B 2 (Schistosoma mansoni, UniProt Q95PM1); test: Cysteine protease inhibition, progress curve method, schistosoma B 2; format: biochemical; conditions: 10 uM Cbz-Phe-Arg-AMC, 100 mM Na acetate pH 5.5, 5 mM cysteine
Experimental: as §1, §2, §3, §4, §5, §6, §7

[6] = target: Falcipain 2 (Plasmodium falciparum, UniProt Q8I6U4); test: Cysteine protease inhibition, progress curve method, falcipain; format: biochemical; conditions: 10 uM Cbz-Leu-Arg-AMC, 100 mM Na acetate pH 5.5, 5 mM cysteine
In short: as §8

[7] = 10 uM Cbz-Phe-Arg-AMC, 100 mM Na acetate pH 5.5, 5 mM cysteine, read-out: Schisto B 1 Ki

Sequence of Rhodazain (Q95PM0 entry or part of it): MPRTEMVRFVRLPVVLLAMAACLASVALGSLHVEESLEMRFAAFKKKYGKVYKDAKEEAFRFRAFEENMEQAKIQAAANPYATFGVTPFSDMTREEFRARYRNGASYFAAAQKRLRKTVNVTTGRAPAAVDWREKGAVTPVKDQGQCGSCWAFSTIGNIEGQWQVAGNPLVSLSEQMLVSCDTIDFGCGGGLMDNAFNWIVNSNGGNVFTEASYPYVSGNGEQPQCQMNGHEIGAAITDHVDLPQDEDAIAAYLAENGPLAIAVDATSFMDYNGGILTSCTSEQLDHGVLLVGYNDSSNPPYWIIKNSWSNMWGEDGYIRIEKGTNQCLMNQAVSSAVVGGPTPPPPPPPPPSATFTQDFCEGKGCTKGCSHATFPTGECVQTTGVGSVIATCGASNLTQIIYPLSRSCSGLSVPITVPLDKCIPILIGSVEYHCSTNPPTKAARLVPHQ
Sequence of Schisto B 1 (P25792 89-340): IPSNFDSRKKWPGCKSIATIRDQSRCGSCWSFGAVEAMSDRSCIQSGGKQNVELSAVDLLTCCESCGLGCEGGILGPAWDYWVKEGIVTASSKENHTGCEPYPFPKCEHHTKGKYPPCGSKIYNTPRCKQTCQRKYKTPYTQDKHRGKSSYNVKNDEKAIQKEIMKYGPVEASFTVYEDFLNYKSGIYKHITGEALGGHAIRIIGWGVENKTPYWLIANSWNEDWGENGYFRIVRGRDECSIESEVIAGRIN
Sequence of Schisto B 2 (Q95PM1 entry or part of it): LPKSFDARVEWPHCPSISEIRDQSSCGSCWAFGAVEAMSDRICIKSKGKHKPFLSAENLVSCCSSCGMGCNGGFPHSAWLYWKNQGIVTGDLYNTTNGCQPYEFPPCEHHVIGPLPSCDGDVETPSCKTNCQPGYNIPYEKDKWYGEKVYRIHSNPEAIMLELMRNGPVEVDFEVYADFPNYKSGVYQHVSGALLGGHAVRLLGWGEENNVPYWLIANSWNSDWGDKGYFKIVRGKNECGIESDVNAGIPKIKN
Sequence of Cruzain (P25779 123-337): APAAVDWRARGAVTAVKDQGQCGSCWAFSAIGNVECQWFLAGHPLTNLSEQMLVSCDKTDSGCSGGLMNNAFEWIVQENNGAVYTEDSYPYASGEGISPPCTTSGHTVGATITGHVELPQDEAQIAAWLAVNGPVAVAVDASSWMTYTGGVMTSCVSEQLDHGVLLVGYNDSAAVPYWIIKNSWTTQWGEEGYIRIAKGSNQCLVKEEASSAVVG
Sequence of Falcipain 2 (Q8I6U4 244-484): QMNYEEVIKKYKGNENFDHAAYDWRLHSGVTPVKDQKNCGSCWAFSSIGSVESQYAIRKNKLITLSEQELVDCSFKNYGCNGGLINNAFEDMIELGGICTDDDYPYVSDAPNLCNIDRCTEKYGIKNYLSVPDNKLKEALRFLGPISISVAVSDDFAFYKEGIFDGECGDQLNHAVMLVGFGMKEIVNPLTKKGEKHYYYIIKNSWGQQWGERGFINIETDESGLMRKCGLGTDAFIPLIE

Compound `O=C(N[C@@H](Cc1ccccc1)C(=O)NC1CCCN(S(=O)(=O)c2ccccn2)CC1=O)c1cccc2cccnc12` (single isomer, unassigned) [Example 189] has a Ki [1] of 3.1 nM and a Ki [2] of 3.9 nM.
`O=C(NC(Cc1ccccc1)C(=O)N[C@@H]1CCCN(S(=O)(=O)c2ccccn2)CC1=O)c1cccc2ccccc12` (single isomer, unassigned) [Example 190] was tested, and the pKi [3] was 8.08, the Ki [1] was 2.5 nM and the pKi [4, 7] was 7.42. The pKi [5] was 7.17.
For `CC(C)C[C@H](NC(=O)c1cc2ccccc2s1)C(=O)NC1CCCN(Cc2ccc3ccccc3n2)CC1=O` (stereo partly drawn) [Example 214, Benzo[b]thiophene-2-carboxylic acid {(S)-3-methyl-1-[3-oxo-1-quinolin-2-ylmethyl-azepan-4-ylcarbamoyl]-butyl}-amide], the pKi [3] was 8.13 and the Ki [2] was 1 nM.
With `COc1cccc(S(=O)(=O)N2CCC[C@H](NC(=O)[C@H](CC(C)C)NC(=O)c3cc4cc(OC)ccc4o3)C(=O)C2)c1` [Example 137, 5-Methoxy-benzofuran-2-carboxylic acid-{(S)-1-[1-(3-methoxy-benzenesulfonyl)-3-oxo-azepan-4-ylcarbamoyl]-3-methyl-butyl}-amide] the pKi [3] was 7.72, the pKi [4, 7] was 7.17 and the pKi [5] was 6.42.
Work on `Cc1c(C(=O)N[C@@H](CC(C)C)C(=O)NC2CCCN(Cc3ccc4ccccc4n3)CC2=O)oc2ccccc12` (stereo partly drawn) [Example 213, 3-Methyl-benzofuran-2-carboxylic acid [(S)-3-methyl-1-[3-oxo-1-quinolin-2-ylmethyl-azepan-4-ylcarbamoyl]-butyl}-amide] yielded a pKi [3] of 8.15 and a Ki [2] of 0.77 nM.
`CC(C)C[C@@H](NC(=O)c1ccc2c(c1)OCO2)C(=O)N[C@@H]1CCCN(S(=O)(=O)c2ccc(F)cc2)CC1=O` (stereo in doubt) [Example 67, Benzo[1,3]dioxole-5-carboxylic acid {(S)-1-[1-(4-fluoro-benzenesulfonyl)-3-oxo-azepan-4-ylcarbamoyl]-3methyl-butyl}-amide] was tested, and the pKi [3] was 7.96, the pKi [4, 7] was 7.35 and the pKi [5] was 6.48.
Work on `CC(C)C[C@H](NC(=O)c1cc2ccccc2o1)C(=O)NC1CCCN(Cc2ccc3ccccc3n2)CC1=O` (stereo partly drawn) [Example 212, Benzofuran-2-carboxylic acid [(S)-3-methyl-1-[3-oxo-1-quinolin-2-ylmethyl-azepan-4-ylcarbamoyl]-butyl}-amide] yielded a pKi [3] of 8.11 and a Ki [2] of 1.7 nM.
With `Cc1occc1S(=O)(=O)N1CCC[C@H](NC(=O)[C@H](CC(C)C)NC(=O)c2cc3ccccc3o2)C(=O)C1` [Example 179] the pKi [3] was 8.66, the Ki [1] was 5.1 nM and the pKi [4, 7] was 7.96. It also gave a pKi [5] of 6.96.
In the case of `COc1cc2cc(C(=O)N[C@H](CC3CCCCC3)C(=O)NC3CCCN(S(=O)(=O)c4cccc[n+]4[O-])CC3=O)oc2cc1OC` (stereo partly drawn) [Example 170, 5,6-Dimethoxy-benzofuran-2-carboxylic acid {(S)-2-cyclohexyl-1-[3-oxo-1-(1-oxy-pyridine-2-sulfonyl)-azepan-4-ylcarbamoyl]-ethyl}-amide], the Ki [1] was 4.7 nM, the pKi [4, 7] was 7.31 and the pKi [5] was 7.09.
`O=C(N[C@@H](Cc1ccc2ccccc2c1)C(=O)NC1CCCN(S(=O)(=O)c2ccccn2)CC1=O)c1cc2ccccc2o1` (stereo partly drawn) [Example 159, Benzofuran-2-carboxylic acid {(S)-2-naphthalen-2-yl-1-[3-oxo-1-(pyridine-2-sulfonyl)-azepan-4-ylcarbamoyl)-ethyl]-amide] was tested, and the Ki [1] was 3.4 nM, the Ki [2] was 1.4 nM and the pKi [4] was 7.33.
In the case of `CC(C)C[C@H](NC(=O)c1cnc2ccccc2n1)C(=O)N[C@H]1CCCN(S(=O)(=O)c2ccc(F)cc2)CC1=O` [Example 86], the pKi [3] was 7.64, the pKi [4, 7] was 7.36 and the pKi [5] was 6.59.
Work on `COc1ccc2oc(C(=O)N[C@@H](CC(C)C)C(=O)N[C@H]3CCCN(S(=O)(=O)c4cccs4)CC3=O)cc2c1` [Example 143, 5-Methoxy-benzofuran-2-carboxylic acid-{(S)-3-methyl-1-[3-oxo-1-(thiophene-2-sulfonyl)-azepan-4-ylcarbamoyl]-butyl}-amide] yielded a pKi [3] of 8.24, a Ki [1] of 6.5 nM and a pKi [4, 7] of 7.26. For the same compound, the pKi [5] was 6.96.
In the case of `COc1cccc(S(=O)(=O)N2CCC[C@H](NC(=O)[C@H](CC(C)C)NC(=O)c3cc4ccccc4o3)C(=O)C2)c1` [Example 136, Benzofuran-2-carboxylic acid-{(S)-1-[1-(3-methoxy-benzenesulfonyl)-3-oxo-azepan-4-ylcarbamoyl]-3-methyl-butyl}-amide], the pKi [3] was 7.92, the pKi [4, 7] was 7.39 and the pKi [5] was 6.77.
`COc1ccc(C(=O)N[C@@H](CC(C)C)C(=O)N[C@@H]2CCCN(S(=O)(=O)c3ccc(F)cc3)CC2=O)cc1OC` [Example 110, N—{(S)-1-[1-(4-Fluoro-benzenesulfonyl)-3-oxo-azepan-4-ylcarbamoyl}-3-methyl-butyl}-3,4-dimethoxy-benzamide] showed a pKi [6] of 7.02, a pKi [3] of 8.13 and a pKi [4, 7] of 7.42. For the same compound, the pKi [5] was 6.55.
`CC(C)C[C@H](NC(=O)c1cc2ccccc2o1)C(=O)N[C@H]1CCCN(S(=O)(=O)c2cccc(Cl)c2)CC1=O` [Example 88, Benzofuran-2-carboxylic acid-{(S)-1-[1-(3-chloro-benzenesulfonyl)-3-oxo-azepan-4ylcarbamoyl]-3-methyl-butyl}-amide] showed a pKi [4, 7] of 7.11 and a pKi [5] of 6.85.
Compound `O=C(NC(Cc1ccc2ccccc2c1)C(=O)NC1CCCN(S(=O)(=O)c2ccccn2)CC1=O)c1cccc2cccnc12` [Example 187, Quinoline-8-carboxylic acid {(S)-2-naphthalen-2-yl-1-[3-oxo-1-(pyridine-2-sulfonyl)-azepan-4-ylcarbamoyl]-ethyl}-amide] has a pKi [3] of 8.17, a Ki [1] of 2.5 nM and a Ki [2] of 2.1 nM. It also gave a pKi [4, 7] of 8.08.
For `O=C(N[C@@H](Cc1ccccc1)C(=O)NC1CCCN(S(=O)(=O)c2ccccn2)CC1=O)c1cc2ccccc2o1` (stereo partly drawn) [Example 104, Benzofuran-2-carboxylic acid {(S)-1-[3-oxo-1-(pyridine-2-sulfonyl)-azepan-4-ylcarbamoyl]-2-phenyl-ethyl}-amide], the pKi [3] was 7.89, the Ki [1] was 3.2 nM and the pKi [4, 7] was 7.12. It also gave a pKi [5] of 6.57.
For `CC(C)CC(NC(=O)c1cc2ccccc2s1)C(=O)NC1CCCN(S(=O)(=O)c2ccccn2)CC1=O` (stereo in doubt) [Example 87, Benzo[b]thiophene-2-carboxylic acid {(S)-3-methyl-1-[3-oxo-1-(pyridine-2-sulfonyl)-azepan-4-ylcarbamoyl]-butyl}amide], the pKi [6] was 7.38, the pKi [3] was 8.52 and the Ki [1] was 1.9 nM. For the same compound, the pKi [4, 7] was 7.36 and the pKi [5] was 6.59.
With `COc1cccc(S(=O)(=O)N2CCC[C@H](NC(=O)[C@H](CC(C)C)NC(=O)c3cc4ccccc4n3C)C(=O)C2)c1` [Example 141, 1-Methyl-1H-indole-2-carboxylic acid-{(S)-1-[1-(3-methoxy-benzenesulfonyl)-3-oxo-azepan-4-ylcarbamoyl]-3-methyl-butyl}-amide] the pKi [4, 7] was 7.30 and the pKi [5] was 6.40.
